# Source: patent publication US20260193244A1 (Protego Biopharma, Inc., priority 2022, published 2026)
# Where a name gives a salt, the structure may show the parent alone.
# Test system: IRE1-XBP1s (HEK293 T-REx cells stably expressing the XBP1-RLuc splicing reporter)
# Assay: IRE1-XBP1s activation Assay (XBP1-RLuc splicing reporter, luminescence relative to thapsigargin, with or without IRE1 inhibitor 4μ8C)
# Assay type: cell-based
# Details: 18 h, compound 10 μM, luminescence as percentage signal relative to thapsigargin (Tg) (500 nM, 18 h)
# Description: IRE1-XBP1s activation Assay: HEK293 T-REx cells stably expressing the XBP1-RLuc splicing reporter were treated with an IRE1-XBP1s activator provided herein (10 μM) in the presence or absence of the IRE1 active site inhibitor 4μ8C (32 μM) for 18 h. Luminescence was shown as the percentage signal relative to thapsigargin (Tg) (500 nM, 18 h).
row,Structure (SMILES),activation at 10 µM
1,"Cc1ccc(OC2(C)CCCN(C(=O)Cn3cc(NC(=O)CCOc4ccccc4F)cn3)C2)c(N)c1 (stereo not drawn) [Compound 69, N-(1-(2-(3-(2-amino-4-methylphenoxy)-3-methylpiperidin-1-yl)-2-oxoethyl)-1H-pyrazol-4-yl)-3-(2-fluorophenoxy)propanamide]",< 30%
2,CN(C(=O)Cn1cc(NC(=O)CCOc2ccccc2)cn1)C12CCC(Oc3ccc(C(F)(F)F)cc3)(CC1)CC2 [Compound 70],≥ 50%
3,Cc1ccc(O[C@H]2CCCN(C(=O)Cn3cc(NC(=O)CCOc4ccccc4F)cn3)C2)cc1 [Compound 71],≥ 50%
4,Cc1ccc(O[C@@H]2CCCN(C(=O)Cn3cc(NC(=O)CCOc4ccccc4F)cn3)C2)cc1 [Compound 72],≥ 50%
5,Cc1ccc(OCCN(C)C(=O)Cn2cc(NC(=O)C3CN(C(=O)OC(C)(C)C)c4ccccc4O3)cn2)cc1 (stereo not drawn) [Compound 73],< 30%
6,Cc1ccc(OC2CCCN(C(=O)Cn3cc(NC(=O)CCOc4ccccc4-c4ccccc4)cn3)C2)cc1 (stereo not drawn) [Compound 74],< 30%
7,Cc1ccc(OC2CCCN(C(=O)Cn3cc(NC(=O)CCOc4cncc(F)c4)cn3)C2)cc1 (stereo not drawn) [Compound 75],< 30%
8,Cc1ccc(OC2(C)CCCN(C(=O)Cn3cc(NC(=O)CCOc4ccccc4F)cn3)C2)cc1 (stereo not drawn) [Compound 77],30 to 50%
9,CC1(Oc2ccc(Br)cc2)CCCN(C(=O)Cn2cc(NC(=O)CCOc3ccccc3F)cn2)C1 (stereo not drawn) [Compound 78],< 30%
10,Cc1ccc(OC2CCCN(C(=O)Cn3cc(NC(=O)CCOc4cc(Cl)ccc4F)cn3)C2)cc1 (stereo not drawn) [Compound 80],≥ 50%
11,Cc1ccc(OC2CCCN(C(=O)Cn3cc(NC(=O)CCOc4ccccc4C(F)(F)F)cn3)C2)cc1 (stereo not drawn) [Compound 83],< 30%
12,Cc1ccc(OCCN(C)C(=O)Cn2cc(NC(=O)CCN3CCOc4ccccc43)cn2)cc1 [Compound 85],< 30%
13,Cc1ccc(OC2CCCN(C(=O)Cn3cc(NC(=O)CCOc4c(F)cccc4F)cn3)C2)cc1 (stereo not drawn) [Compound 86],30 to 50%
14,Cc1ccc(OC2CCCN(C(=O)Cn3cc(NC(=O)CCOc4cncc(C(F)(F)F)c4)cn3)C2)cc1 (stereo not drawn) [Compound 89],< 30%
15,"Cc1ccc(OCCN(C)C(=O)Cn2cc(NC(=O)C3CNc4ncccc4O3)cn2)cc1 (stereo not drawn) [Compound 90, N-(1-(2-(methyl(2-(p-tolyloxy)ethyl)amino)-2-oxoethyl)-1H-pyrazol-4-yl)-3,4-dihydro-2H-pyrido[3,2-b][1,4]oxazine-2-carboxamide hydrochloride]",30 to 50%
16,Cc1ccc(OC2CCCN(C(=O)Cn3cc(NC(=O)CCOc4cccnc4C(F)(F)F)cn3)C2)cc1 (stereo not drawn) [Compound 91],< 30%
17,Cc1ccc(O[C@@H]2CCCN(C(=O)Cn3cc(NC(=O)CCOc4ccc(F)cc4C)cn3)C2)cc1 [Compound 93],≥ 50%
18,Cc1ccc(O[C@H]2CCCN(C(=O)Cn3cc(NC(=O)CCOc4ccc(F)cc4C)cn3)C2)cc1 [Compound 94],30 to 50%
19,"Cc1ccc(OCCN(C)C(=O)Cn2cc(NC(=O)CC3CNc4cc(F)ccc4O3)cn2)cc1 (stereo not drawn) [Compound 96, 2-(4-(2-(6-fluoro-3,4-dihydro-2H-benzo[b][1,4]oxazin-2-yl)acetamido)-1H-pyrazol-1-yl)-N-methyl-N-(2-(p-tolyloxy)ethyl)acetamide]",30 to 50%
20,Cc1ccc(OCCN(C)C(=O)Cn2cc(NC(=O)CC3CN(C(=O)OC(C)(C)C)c4cc(F)ccc4O3)cn2)cc1 (stereo not drawn) [Compound 97],≥ 50%

row,Structure (SMILES),activation at 10 µM
1,Cc1ccc(OC2CCCN(C(=O)Cn3cc(NC(=O)CCOc4ccc(F)cc4C)cn3)C2)cc1 (stereo not drawn) [Compound 98],≥ 50%
2,"Cc1ccc(OC2CCCN(C(=O)Cn3cc(NC(=O)CCC4(c5ccccc5F)CC4)cn3)C2)cc1 (stereo not drawn) [Compound 100, 3-(1-(2-fluorophenyl)cyclopropyl)-N-(1-(2-oxo-2-(3-(p-tolyloxy)piperidin-1-yl)ethyl)-1H-pyrazol-4-yl)propanamide]",< 30%
3,Cc1ccc(OCCN(C)C(=O)Cn2cc(NC(=O)C3CCCC(Oc4ccncc4)C3)cn2)cc1 (stereo not drawn) [Compound 101],< 30%
4,Cc1ccc(OCCN(C)C(=O)Cn2cc(NC(=O)C3CCC(Oc4ccncc4)CC3)cn2)cc1 (stereo not drawn) [Compound 102],≥ 50%
5,Cc1ccc(OCCN(C)C(=O)Cn2cc(NC(=O)C3CCC(Oc4cccnc4)CC3)cn2)cc1 (stereo not drawn) [Compound 103],< 30%
6,Cc1ccc(OCCN(C)C(=O)Cn2cc(NC(=O)C3CCC(Oc4ccncc4)C3)cn2)cc1 (stereo not drawn) [Compound 104],≥ 50%
7,Cc1ccc(O[C@H]2CCCN(C(=O)Cn3cc(NC(=O)C4CC(Oc5ccccn5)C4)cn3)C2)cc1 (stereo partly drawn) [Compound 105],30 to 50%
8,Cc1ccc(O[C@H]2CCCN(C(=O)Cn3cc(NC(=O)[C@H]4C[C@H](Oc5ccccn5)C4)cn3)C2)cc1 [Compound 106],≥ 50%
9,Cc1ccc(O[C@H]2CCCN(C(=O)Cn3cc(NC(=O)C4CC(Oc5cccnc5N)C4)cn3)C2)cc1 (stereo partly drawn) [Compound 107],30 to 50%
10,O=C(Nc1cnn(CC(=O)N2CCC[C@H](Oc3ccc(C(F)(F)F)cn3)C2)c1)C1CC(Oc2ccncc2)C1 (stereo partly drawn) [Compound 108],< 30%
11,O=C(Cn1cc(NC(=O)[C@H]2C[C@H](Oc3ccccc3)C2)cn1)N1CCC[C@H](Oc2ccc(C(F)(F)F)cn2)C1 [Compound 109],< 30%
12,Cc1ccc(OCCN(C)C(=O)Cn2cc(NC(=O)CC3CCc4cc(F)ccc4O3)cn2)cc1 (stereo not drawn) [Compound 110],< 30%
13,Cc1ccc(OCCN(C)C(=O)Cn2cc(NC(=O)c3cnccc3NC(=O)OC(C)(C)C)cn2)cc1 [Compound 111],≥ 50%
14,Cc1ccc(OCCN(C)C(=O)Cn2cc(NC(=O)c3cnccc3N)cn2)cc1 [Compound 112],< 30%
15,COc1ccc(N(C)C(=O)Cn2cc(NC(=O)CCOc3ccccc3)cn2)cc1 [Compound 113],< 30%
16,O=C(CCOc1ccccc1)Nc1cnn(CC(=O)Nc2ccc(OC(F)F)cc2)c1 [Compound 114],30 to 50%
17,Cc1ccc(C(=O)c2ccc(N(C)C(=O)Cn3cc(NC(=O)CCOc4ccccc4)cn3)cn2)cc1 [Compound 115],< 30%
18,Cc1ccc(Oc2cccc(N(C)C(=O)Cn3cc(NC(=O)CCOc4ccccc4)cn3)c2)cc1 [Compound 116],< 30%
19,Cc1ccc(OC2CCCCN(C(=O)Cn3cc(NC(=O)CCOc4ccccc4)cn3)C2)cc1 (stereo not drawn) [Compound 117],≥ 50%
20,Cc1ccc(Oc2ccc(N(C)C(=O)Cn3cc(NC(=O)CCOc4ccccc4)cn3)cc2)cc1 [Compound 118],< 30%

row,Structure (SMILES),activation at 10 µM
1,CN(C(=O)Cn1cc(NC(=O)CCOc2ccccc2)cn1)c1ccc(OC2CCC(C)(C)CC2)c(F)c1 [Compound 119],< 30%
2,Cc1ccc(O[C@H]2CCCN(C(=O)Cn3cc(NC(=O)C4CNc5ccccc5O4)cn3)C2)cc1 (stereo partly drawn) [Compound 120],< 30%
3,Cc1ccc(O[C@H]2CCCN(C(=O)Cn3cc(NC(=O)C4CN(C(=O)OC(C)(C)C)c5ccccc5O4)cn3)C2)cc1 (stereo partly drawn) [Compound 121],< 30%
4,Cc1ccc(O[C@H]2CCCN(C(=O)Cn3cc(NC(=O)[C@H]4CNc5ccccc5O4)cn3)C2)cc1 [Compound 122],< 30%
5,Cc1ccc(O[C@H]2CCCN(C(=O)Cn3cc(NC(=O)[C@@H]4CNc5ccccc5O4)cn3)C2)cc1 [Compound 123],< 30%
6,Cc1ccc(OCCN(C)C(=O)Cn2cc(NC(=O)C3Oc4cccc(C(C)C)c4O3)cn2)cc1 (stereo not drawn) [Compound 124],< 30%
7,Cc1ccc(OCCN(C)C(=O)Cn2cc(NC(=O)C3COc4cccc(C)c4O3)cn2)cc1 (stereo not drawn) [Compound 125],30 to 50%
8,Cc1ccc(OCCN(C)C(=O)Cn2cc(NC(=O)C3COc4cccc(C(C)C)c4O3)cn2)cc1 (stereo not drawn) [Compound 126],< 30%
9,Cc1ccc(OCCN(C)C(=O)Cn2cc(NC(=O)C3CNc4cccc(F)c4O3)cn2)cc1 (stereo not drawn) [Compound 127],30 to 50%
10,Cc1ccc(OCCN(C)C(=O)Cn2cc(NC(=O)C3Oc4ccccc4O3)cn2)cc1 [Compound 128],< 30%
11,Cc1ccc(OCCN(C)C(=O)Cn2cc(NC(=O)C3COc4c(F)cccc4O3)cn2)cc1 (stereo not drawn) [Compound 129],≥ 50%
12,"Cc1ccc(OCCN(C)C(=O)Cn2cc(NC(=O)OC3CCCN(c4ccnc(F)n4)C3)cn2)cc1 (stereo not drawn) [Compound 130, 1-(2-fluoropyrimidin-4-yl)piperidin-3-yl (1-(2-(methyl (2-(p-tolyl-oxy)ethyl)amino)-2-oxoethyl)-1H-pyrazol-4-yl)carbamate]",< 30%
13,"Cc1ccc(OCCN(C)C(=O)Cn2cc(NC(=O)OC3CCCN(c4nccc(F)n4)C3)cn2)cc1 (stereo not drawn) [Compound 131, 1-(4-fluoropyrimidin-2-yl)piperidin-3-yl (1-(2-(methyl (2-(p-tolyloxy)ethyl)-amino)-2-oxoethyl)-1H-pyrazol-4-yl)carbamate]",< 30%
14,Cc1ccc(OCCN(C)C(=O)Cn2cc(NC(=O)COC3CCCN(c4nccc(F)n4)C3)cn2)cc1 (stereo not drawn) [Compound 132],< 30%
15,Cc1ccc(OCCN(C)C(=O)Cn2cc(NC(=O)C3CNCC3Nc3ccnc(O)n3)cn2)cc1 (stereo not drawn) [Compound 133],< 30%
16,Cc1ccc(OC2CCC23CN(C(=O)Cn2cc(NC(=O)CCNc4nccc(F)n4)cn2)C3)cc1 (stereo not drawn) [Compound 134],< 30%
17,Cc1ccc(OCCN(C)C(=O)Cn2cc(NC(=O)C3CC(Nc4ccncc4)C3)cn2)cc1 (stereo not drawn) [Compound 135],< 30%
18,Cc1ccc(O[C@H]2CCCN(C(=O)Cn3cc(NC(=O)CCNc4nccc(F)n4)cn3)C2)cc1 [Compound 136],< 30%
19,Cc1ccc(OCCN(C)C(=O)Cn2cc(NC(=O)COC3CCCN(c4ccnc(F)n4)C3)cn2)cc1 (stereo not drawn) [Compound 137],< 30%
20,Cc1ccc(OCCN(C)C(=O)Cn2cc(NC(=O)C3CN(c4ccccc4)C3)cn2)cc1 [Compound 138],< 30%
